In PMC7596511 (Scientific Reports, 2020):
“Also recorded” adds a separate entry of the source.

Columns and labels:
AgamOBP5 = target: T1, AgamOBP5 (Anopheles gambiae, UniProt Q8T6R6); assay: Fluorescence competitive binding test (FCBT), 1-NPN probe; design: species or system Anopheles gambiae s.s.
T1 sequence (Q8T6R6 32-154): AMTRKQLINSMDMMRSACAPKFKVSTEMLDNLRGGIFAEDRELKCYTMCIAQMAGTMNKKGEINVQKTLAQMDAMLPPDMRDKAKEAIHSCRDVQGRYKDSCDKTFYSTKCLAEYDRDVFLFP
Method: (§1) For recombinant OBPs, we first need to obtain the OBPs related genes. DNA of A. gambiae s.s. female adults was extracted following the procedure used in a previous study. The predicted AgamOBPs and AgamORs were detected using standard PCR with specific respective primers which were designed using Primer Premier 5 (Premier Biosoft, California, USA; Table S1). Each PCR mixture contained 1 μl of A. gambiae s.s. […] (200 ng·ml^−1; previously extracted using a DNA extraction kit from Transgen Biotech, Beijing, China), 12.5 μl prime STAR Max Premix (2 ×), 1.5 μl of each primer ([…]), and […] sterilized H2O. The PCR cycling conditions were as follows: an initial denaturation at 94 °C for 40 s, followed by 35 cycles at […] for 40 s (denaturing), 59 °C for 50 s (annealing) and 72 °C for 3 min. The PCR products were verified and sent for sequencing. Recombinant proteins were generated by transforming plasmids containing the verified […] genes into Escherichia coli BL21 (DE3) cells. We then induced recombinant protein expression using 1 mM isopropyl ß-D-1-thiogalactopyranoside at 37 °C for 6 h. The recombinant proteins were purified using two rounds of […] ion affinity chromatography (GE Healthcare, Milwaukee, WI, USA), following the manufacturer's instructions[5],[53]; the His-tags were removed simultaneously using recombinant enterokinase (Novagen, Madison, WI, USA), following the manufacturer's instructions. The purified proteins were desalted using extensive dialysis. The size and purity of each desalted protein were determined using 15% sodium dodecylsulphate-polyacrylamide gel electrophoresis (SDS-PAGE)[55].
(§2) This assay assumes that the receptors are 100% active, and that each receptor can only bind to one ligand[56].
(§3) Recombinant proteins were dissolved in 50 mM Tris–HCl protein buffer to yield a final concentration of […], respectively. The fluorescence competitive binding were conducted in a 1-cm quartz cell and the fluorescence intensity F95S fluorescence spectrophotometer (Shanghai Lengguang Technology Co., Ltd., Shanghai, China) at 25 °C with the following parameters: excitation of 10 nm; emission slit of 10 nm; sensitivity of 2 s; gain value of 2; excitation wavelength of 337 nm; and an emission wavelength range of 370–500 nm, as a previous study.
(§4) First, the binding constant (Kd) for each recombinant protein to the 1-N-phenyl-naphthylamine (1-NPN) fluorescent probe was detected. In brief, 2 ml of protein solution and 2 μl of 1-NPN solution were added to the quartz cell and thoroughly mixed for 1 min. Peak fluorescence was continuously recorded until it stabilized and began to decrease.
(§5) Next, the ligands were added to the quartz cell along with each receptor, in order to competitively bind to the fluorescent probe. In brief, 2 ml of protein solution and 2 ml of 1-NPN solution were added to the quartz cell, and the fluorescence peaks were scanned and recorded. Then, 2 μl of each ligand was added and allowed to sit for 1 min before the peak fluorescence was scanned and recorded. We then continued to add 2 μl aliquots of the ligand solution until the fluorescence was less than half of the initial value.
(§6) The binding curves were then linearized using a Scatchard plot, which calculates the concentration of the competitor that halves the initial fluorescence intensity (IC50).

AgamOBP20 = target: T2, AgamOBP20 (Anopheles gambiae, UniProt Q7Q9J3); assay: as above; design: species or system Anopheles gambiae s.s.
T2 sequence (Q7Q9J3 24-142): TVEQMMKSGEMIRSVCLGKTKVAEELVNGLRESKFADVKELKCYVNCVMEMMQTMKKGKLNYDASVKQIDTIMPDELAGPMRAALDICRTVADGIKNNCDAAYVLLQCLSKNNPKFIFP
Method: as §1, §2, §3, §4, §5, §6

AgamORC7 = target: T3, AgamORC7 (Anopheles gambiae, UniProt Q7QCC7); assay: as above; design: species or system Anopheles gambiae s.s.
T3 construct: His-tag (cleaved yes); made in house; host or cells: Escherichia coli BL21 (DE3)
T3 sequence (Q7QCC7 1-478): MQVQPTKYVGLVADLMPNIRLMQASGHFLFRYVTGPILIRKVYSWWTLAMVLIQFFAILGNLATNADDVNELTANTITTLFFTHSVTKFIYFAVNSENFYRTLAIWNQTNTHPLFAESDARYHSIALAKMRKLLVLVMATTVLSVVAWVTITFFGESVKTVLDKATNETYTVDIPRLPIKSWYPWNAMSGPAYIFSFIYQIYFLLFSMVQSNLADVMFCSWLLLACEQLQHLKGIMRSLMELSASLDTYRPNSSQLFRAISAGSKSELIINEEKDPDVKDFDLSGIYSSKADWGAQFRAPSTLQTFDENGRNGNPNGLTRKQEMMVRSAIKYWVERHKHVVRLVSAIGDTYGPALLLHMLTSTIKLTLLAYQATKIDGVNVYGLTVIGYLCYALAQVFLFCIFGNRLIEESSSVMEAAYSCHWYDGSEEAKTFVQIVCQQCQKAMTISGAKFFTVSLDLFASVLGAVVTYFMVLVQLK
Method: as §1, §2, §3, §4, §5, §6

AgamOBP4 = target: T4, AgamOBP4 (Anopheles gambiae, UniProt Q8T6R7); assay: as above; design: species or system Anopheles gambiae s.s.
T4 sequence (Q8T6R7 26-150): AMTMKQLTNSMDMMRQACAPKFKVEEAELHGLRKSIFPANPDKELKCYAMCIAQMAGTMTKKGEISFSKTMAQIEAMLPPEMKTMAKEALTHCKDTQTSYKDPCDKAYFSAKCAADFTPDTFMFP
Method: as §1, §2, §3, §4, §5, §6

[1] = tested on: Anopheles gambiae s.s. females; assay: Dual-choice Y-tube olfactory meter repellency test; type: in vivo
Method: A glass Y-tube (1.6 cm i.d., 12-cm base , two 8-cm arms at a 45° angle from one another) olfactory meter described in our previous study was used in this experiment. […] The control cotton ball with triethyl citrate (without citronellal) was inserted into the other jar. Teflon tube was used to connect all parts of Y-tube olfactory meter. Fresh air was produced by an air pump at a rate of 200 ± 10 ml/min, and purified by active carbon and silicone before flowing into the jars. The headspace of citronellal volatile was combined with the purified air and went through one arm of the Y-tube while purified air without citronellal went through the other arm. The base of the Y-tube was connected to an air collection bottle. One hundred female A. gambiae s.s. were individually released in the air collection bottle (2-cm i.d., 8-cm high), where behavioral responses were monitored and recorded over a 300 s period. The collecting jar, Y-tubes, air collection bottle were cleaned with hot water (> 60 °C) after every 10 individuals were tested, and the cotton roll was renewed every 2 h. The olfactory test was repeated five times.

Compound `c1ccc(Nc2cccc3ccccc23)cc1` [1-NPN, 1-N-phenyl-naphthylamine] has a Kd (AgamOBP5) of 2440 nM, a Kd (AgamOBP20) of 2170 nM and a Kd (AgamORC7; Fig. 5 panel d, Scatchard, unit inferred) of 1120 nM. The Kd (AgamOBP4) was 1140 nM.

`CC(C)=CCCC(C)CC=O` (stereo not drawn) [citronellal] was tested, and the “repellent rate for 50% of individuals (RQ50)” value ([1]; Y-tube, quantity series 0.01-100 nmol on cotton ball, Probit analysis) was 4.02 nmol, the “Lg(RQ50)” value ([1]; regression of citronellal quantity vs repellent rate, Fig. 1) was 0.604 and the “binding of citronellal in words” value (AgamOBP5; competition with 1-NPN) was “could not reduce fluorescent rate down below 50%; also recorded: cannot bind well”. For the same compound, the “binding of citronellal in words” value (AgamOBP20; competition with 1-NPN) was “could not reduce fluorescent rate down below 50%; also recorded: cannot bind well”, the IC50 (AgamORC7; competition with 1-NPN, 25 °C) was 2230 nM and the Ki (AgamORC7; competition with 1-NPN, 25 °C) was 1570 nM. It also gave an IC50 (AgamOBP4; competition with 1-NPN, 25 °C) of 1230 nM and a Ki (AgamOBP4; competition with 1-NPN, 25 °C) of 710 nM.
